In the NIST ThermoML archive (doi:10.1016/j.jct.2013.04.021):

Assay: xn = mol fraction of the nth substance listed
Settings: 101 kPa, Liquid; for mass density: Vibrating tube method; for speed of sound: fixed-path interferometer; for viscosity: Capillary tube (Ostwald / Ubbelohde) method

CCCCOCCO [2-butoxyethan-1-ol] + CCCCCCO
Settings | mass density [kg/m3] | speed of sound [m/s] | viscosity [mPa·s]
293.15 K, x1 = 0.0535 | 823.637 | 1320 | –
293.15 K, x1 = 0.1046 | 827.82 | 1319.4 | –
293.15 K, x1 = 0.1546 | 831.917 | 1319.1 | –
293.15 K, x1 = 0.2054 | 836.077 | 1318.8 | –
293.15 K, x1 = 0.253 | 839.982 | 1318.5 | –
293.15 K, x1 = 0.2999 | 843.819 | 1318.3 | –
293.15 K, x1 = 0.4044 | 852.353 | 1318.3 | –
293.15 K, x1 = 0.5039 | 860.457 | 1318.5 | –
293.15 K, x1 = 0.5932 | 867.724 | 1318.9 | –
293.15 K, x1 = 0.7003 | 876.414 | 1319.6 | –
293.15 K, x1 = 0.8019 | 884.63 | 1320.7 | –
293.15 K, x1 = 0.8545 | 888.867 | 1321.4 | –
293.15 K, x1 = 0.8987 | 892.418 | 1322 | –
293.15 K, x1 = 0.9522 | 896.698 | 1322.8 | –
298.15 K, x1 = 0.0535 | 820.01 | 1303.1 | 4.359
298.15 K, x1 = 0.1046 | 824.093 | 1302.6 | 4.133
298.15 K, x1 = 0.1546 | 828.161 | 1302.2 | 4.004
298.15 K, x1 = 0.2054 | 832.312 | 1301.8 | 3.821
298.15 K, x1 = 0.253 | 836.221 | 1301.6 | 3.691
298.15 K, x1 = 0.2999 | 840.066 | 1301.4 | 3.616
298.15 K, x1 = 0.4044 | 848.606 | 1301.3 | 3.464
298.15 K, x1 = 0.5039 | 856.686 | 1301.5 | 3.305
298.15 K, x1 = 0.5932 | 863.892 | 1301.8 | 3.139
298.15 K, x1 = 0.7003 | 872.492 | 1302.6 | 3.046
298.15 K, x1 = 0.8019 | 880.623 | 1303.6 | 2.996
298.15 K, x1 = 0.8545 | 884.811 | 1304.3 | 2.908
298.15 K, x1 = 0.8987 | 888.334 | 1305 | 2.897
298.15 K, x1 = 0.9522 | 892.569 | 1305.7 | 2.871
303.15 K, x1 = 0.0535 | 816.368 | 1286.3 | 3.706
303.15 K, x1 = 0.1046 | 820.503 | 1285.8 | 3.56
303.15 K, x1 = 0.1546 | 824.557 | 1285.5 | 3.421
303.15 K, x1 = 0.2054 | 828.676 | 1285.2 | 3.3
303.15 K, x1 = 0.253 | 832.536 | 1284.9 | 3.19
303.15 K, x1 = 0.2999 | 836.324 | 1284.8 | 3.1
303.15 K, x1 = 0.4044 | 844.739 | 1284.7 | 2.916
303.15 K, x1 = 0.5039 | 852.713 | 1284.8 | 2.781
303.15 K, x1 = 0.5932 | 859.852 | 1285.2 | 2.694
303.15 K, x1 = 0.7003 | 868.399 | 1285.9 | 2.631
303.15 K, x1 = 0.8019 | 876.485 | 1286.8 | 2.583
303.15 K, x1 = 0.8545 | 880.662 | 1287.4 | 2.573
303.15 K, x1 = 0.8987 | 884.162 | 1288 | 2.595
303.15 K, x1 = 0.9522 | 888.376 | 1288.7 | 2.613
308.15 K, x1 = 0.0535 | 812.694 | 1269.6 | 3.243
308.15 K, x1 = 0.1046 | 816.794 | 1269.2 | 3.12
308.15 K, x1 = 0.1546 | 820.816 | 1268.8 | 3.006
308.15 K, x1 = 0.2054 | 824.902 | 1268.6 | 2.896
308.15 K, x1 = 0.253 | 828.737 | 1268.3 | 2.807
308.15 K, x1 = 0.2999 | 832.499 | 1268.2 | 2.736
308.15 K, x1 = 0.4044 | 840.855 | 1268.1 | 2.597
308.15 K, x1 = 0.5039 | 848.772 | 1268.2 | 2.499
308.15 K, x1 = 0.5932 | 855.859 | 1268.6 | 2.43
308.15 K, x1 = 0.7003 | 864.345 | 1269.2 | 2.367
308.15 K, x1 = 0.8019 | 872.393 | 1270.1 | 2.311
308.15 K, x1 = 0.8545 | 876.541 | 1270.6 | 2.284
308.15 K, x1 = 0.8987 | 880.024 | 1271.1 | 2.275
308.15 K, x1 = 0.9522 | 884.199 | 1271.8 | 2.242
313.15 K, x1 = 0.0535 | 809.018 | 1253 | –
313.15 K, x1 = 0.1046 | 813.092 | 1252.7 | –
313.15 K, x1 = 0.1546 | 817.077 | 1252.4 | –
313.15 K, x1 = 0.2054 | 821.127 | 1252.2 | –
313.15 K, x1 = 0.253 | 824.921 | 1252 | –
313.15 K, x1 = 0.2999 | 828.653 | 1251.9 | –
313.15 K, x1 = 0.4044 | 836.942 | 1251.8 | –
313.15 K, x1 = 0.5039 | 844.805 | 1251.9 | –
313.15 K, x1 = 0.5932 | 851.852 | 1252.2 | –
313.15 K, x1 = 0.7003 | 860.279 | 1252.7 | –
313.15 K, x1 = 0.8019 | 868.245 | 1253.4 | –
313.15 K, x1 = 0.8545 | 872.354 | 1253.9 | –
313.15 K, x1 = 0.8987 | 875.803 | 1254.3 | –
313.15 K, x1 = 0.9522 | 879.956 | 1254.9 | –
